Measurements: patent publication US20110098326A1, “2-FLUOROTHIAZOLE DERIVATIVES USEFUL AS IMAGING AGENTS; METHODS OF SYNTHESIS, AND METHODS OF USE” (priority 2009, published 2011)
Where two headings read alike, the source gives them in different places.

Experiments:
mGluR5 receptors = target: T1, mGluR5 receptors (Homo sapiens, UniProt P41594); test: In vitro binding to glutamate receptors ([^3H]MPEP displacement, membranes of transfected cell lines); conditions: mGluR5, radioligand [^3H]MPEP
T1 construct: expressed in transfected cells; host or cells: transiently or stably transfected cell lines (e.g., HEK293, COS, CHO, NIH3T3)
T1 sequence (P41594 21-1212): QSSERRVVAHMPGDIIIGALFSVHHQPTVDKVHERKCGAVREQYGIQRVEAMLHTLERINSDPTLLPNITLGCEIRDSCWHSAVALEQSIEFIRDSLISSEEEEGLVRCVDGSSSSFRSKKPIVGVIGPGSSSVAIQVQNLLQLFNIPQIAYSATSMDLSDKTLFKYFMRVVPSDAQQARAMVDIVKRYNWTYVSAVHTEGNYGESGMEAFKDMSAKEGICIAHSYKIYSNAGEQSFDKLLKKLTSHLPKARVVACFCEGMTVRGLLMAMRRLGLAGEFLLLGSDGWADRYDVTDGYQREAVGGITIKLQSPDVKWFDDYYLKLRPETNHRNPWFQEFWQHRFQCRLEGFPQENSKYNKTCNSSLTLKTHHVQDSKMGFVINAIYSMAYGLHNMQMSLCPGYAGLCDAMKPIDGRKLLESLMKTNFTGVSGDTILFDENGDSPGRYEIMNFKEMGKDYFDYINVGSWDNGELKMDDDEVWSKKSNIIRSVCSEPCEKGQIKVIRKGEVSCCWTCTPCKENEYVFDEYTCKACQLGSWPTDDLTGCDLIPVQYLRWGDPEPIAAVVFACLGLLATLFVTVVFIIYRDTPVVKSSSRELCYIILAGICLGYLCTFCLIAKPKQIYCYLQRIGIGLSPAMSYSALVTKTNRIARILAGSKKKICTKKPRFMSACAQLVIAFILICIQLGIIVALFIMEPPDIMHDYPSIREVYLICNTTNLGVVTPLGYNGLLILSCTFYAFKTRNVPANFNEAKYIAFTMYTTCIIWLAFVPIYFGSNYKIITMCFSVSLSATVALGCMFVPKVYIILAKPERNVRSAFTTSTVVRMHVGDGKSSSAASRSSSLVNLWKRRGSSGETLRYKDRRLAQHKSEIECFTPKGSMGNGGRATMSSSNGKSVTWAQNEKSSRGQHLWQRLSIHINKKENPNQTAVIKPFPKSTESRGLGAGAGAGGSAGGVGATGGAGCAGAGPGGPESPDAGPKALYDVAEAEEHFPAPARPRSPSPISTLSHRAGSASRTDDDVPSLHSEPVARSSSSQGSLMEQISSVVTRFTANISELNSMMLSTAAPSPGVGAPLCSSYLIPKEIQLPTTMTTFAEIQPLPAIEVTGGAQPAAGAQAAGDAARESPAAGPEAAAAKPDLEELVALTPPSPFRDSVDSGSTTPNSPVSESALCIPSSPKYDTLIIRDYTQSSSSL
Experimental: The assay buffer is Standard Binding Buffer (50 mM Tris-HCl, 10 mM MgCl2, 0.1 mM EDTA, pH 7.4) and the membrane fraction source is transiently or stably transfected cell lines (e.g., HEK293, COS, CHO, NIH3T3)
Aliquots (50 μL) of radioligand are dispensed into the wells of a 96-well plate containing 100 μl of Standard Binding Buffer. Then, duplicate 50-μL aliquots of the test and reference compound dilutions are added.
The 250-4, reactions are incubated at room temperature and shielded from light (to prevent photolysis of light-sensitive ligands) for 1 hour, then harvested by rapid filtration onto Whatman GF/B glass fiber filters pre-soaked with 0.3% polyethyleneimine using a 96-well Brandel harvester. Four rapid 500-μL washes are performed with chilled Standard Binding Buffer to reduce non-specific binding. Filters are placed in 6-mL scintillation tubes and allowed to dry overnight. The next day, 4 mL of EcoScint scintillation cocktail (National Diagnostics) are added to each tube. The tubes are capped, labeled, and counted by liquid scintillation counting. […] The filter mats are dried, then scintillant is melted onto the filters and the radioactivity retained on the filters is counted in a Microbeta scintillation counter.
Raw data (dpm) representing total radioligand binding (i.e., specific+non-specific binding) are plotted as a function of the logarithm of the molar concentration of the competitor (i.e., test or reference compound).
Ki=IC50/(1+[ligand]/KD) (Eqn. 2)
where [ligand] equals the assay radioligand concentration and KD equals the affinity constant of the radioligand for the target receptor.

[1] = human subjects; cited from earlier work
[2] = monkey; cited from earlier work
[3] = rat; cited from earlier work

SMILES | Ki (mGluR5 receptors) [nM] | also measured
N#Cc1cc(F)cc(C#Cc2csc(C[18F])n2)c1 [[^18F]SP203, 3-fluoro-5-[[2-([^18F]fluoromethyl)thiazol-4-yl]ethynyl]benzonitrile] |  | defluorination [1]: slower or negligible; defluorination [2]: rapidly defluorinated; defluorination [3]: rapidly defluorinated
Fc1nc(C#Cc2ccccc2)cs1 [Compound 12, 2-fluoro-4-(phenylethynyl)thiazole] | < 150 | 
N#Cc1cc(F)cc(C#Cc2csc(F)n2)c1 [Compound 14, 3-fluoro-5-((2-fluorothiazol-4-yl)ethynyl)benzonitrile] | < 50 | 

Second part, led by results:

Ki (mGluR5 receptors) [nM] | SMILES | also measured
< 50 | N#CCc1cccc(C#Cc2csc(F)n2)c1 [Compound 16] | 
< 50 | COc1cccc(C#Cc2csc(F)n2)c1 [Compound 15] | 
< 50 | N#Cc1cccc(C#Cc2csc(F)n2)c1 [Compound 13, (5-((2-fluorothiazol-4-yl)ethynyl)benzonitrile)] | 
